Measured values reported in patent US10188634B2, “3-(3H-imidazo[4,5-C]pyridin-2-yl)-1 H-pyrazolo[4,3-B]pyridines and therapeutic uses thereof” (Samumed, LLC, priority 2015, dated 2019).

How the values were obtained:
[1] = tested on: IL-6 in THP-1 cells; test: Inhibition of IL-6 in LPS-stimulated THP-1 human monocyte cells (HTRF); type: cell-based; details: IL-6 HTRF; for EC50: 500 ng/mL LPS, 22 hours; for inhibition at 10 µM: LPS, read-out: percent inhibition in brackets (given for EC50 >10 μM)
In short: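 IL-6 was quantified by HTRF ratio after LPS (500 ng/mL, 22 h) stimulation of THP-1 monocytes pretreated 2 h with compound, 10-point 1:3 dilutions from 10 μM, 0.1% DMSO. Cells were held in 1% FBS for 24 h beforehand. Values normalised to DMSO; four-parameter EC50, or % inhibition at 10 μM above that.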

[2] = tested on: Wnt activity (Sp5-Luc reporter, human Sp5 promoter with eight TCF/LEF binding sites) in SW480 colon carcinoma cells; test: Screening assay for Wnt activity: Sp5-Luc reporter gene assay in SW480 cells; type: cell-based; details: for inhibition at 10 µM: read-out: percent inhibition at 10 μM (given for EC50 of >10 μM); for EC50: 10-point dose-response starting from 10 μM, overnight incubation
In short: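 Luminescence (BrightGlo) read after overnight 37 °C exposure of Sp5-Luc SW480 reporter cells, 4,000/well in 1% FBS, to compound dosed 1:3 over 10 points from 10 μM with 0.1% DMSO. Values normalized to DMSO-only cells, fitted with variable-slope four-parameter model; where EC50 exceeds 10 μM, % inhibition at 10 μM reported.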

| EC50 [1] | EC50 [2] | SMILES | inhibition at 10 µM [1] | inhibition at 10 µM [2] |
| --- | --- | --- | --- | --- |
| > 10 µM | > 10 µM | Fc1cccc(-c2cncc3[nH]c(-c4n[nH]c5ccc(-c6cnccn6)nc45)nc23)c1 [Compound 492, 3-(7-(3-Fluorophenyl)-3H-imidazo[4,5-c]pyridin-2-yl)-5-(pyrazin-2-yl)-1H-pyrazolo[4,3-b]pyridine] | 24.5% | 13% |
| 0.371 µM | > 10 µM | c1cncc(-c2cncc3[nH]c(-c4n[nH]c5ccc(-c6cncc(OC7CCCCC7)c6)nc45)nc23)c1 [Compound 531, 5-(5-(Cyclohexyloxy)pyridin-3-yl)-3-(7-(pyridin-3-yl)-3H-imidazo[4,5-c]pyridin-2-yl)-1H-pyrazolo[4,3-b]pyridine] |  | 24.3% |
| 0.414 µM | > 10 µM | Oc1cncc(-c2ccc3[nH]nc(-c4nc5c(-c6cccnc6)cncc5[nH]4)c3n2)c1 [Compound 537, 5-(3-(7-(Pyridin-3-yl)-3H-imidazo[4,5-c]pyridin-2-yl)-1H-pyrazolo[4,3-b]pyridin-5-yl)pyridin-3-ol] |  | 9.9% |
| > 10 µM | > 10 µM | c1cc(-c2cncc3[nH]c(-c4n[nH]c5ccc(-c6cncc(OC7CCNCC7)c6)nc45)nc23)ccn1 [Compound 548, 5-(5-(Piperidin-4-yloxy)pyridin-3-yl)-3-(7-(pyridin-4-yl)-3H-imidazo[4,5-c]pyridin-2-yl)-1H-pyrazolo[4,3-b]pyridine] | 22.6% | 16.1% |
| > 10 µM | > 10 µM | c1ccc(COc2cncc(-c3ccc4[nH]nc(-c5nc6c(-c7ccncc7)cncc6[nH]5)c4n3)c2)cc1 [Compound 554, 5-(5-(Benzyloxy)pyridin-3-yl)-3-(7-(pyridin-4-yl)-3H-imidazo[4,5-c]pyridin-2-yl)-1H-pyrazolo[4,3-b]pyridine] | 50.3% | 0% |
| > 10 µM | > 10 µM | c1cc(-c2cncc3[nH]c(-c4n[nH]c5ccc(-c6cnccn6)nc45)nc23)ccn1 [Compound 556, 5-(Pyrazin-2-yl)-3-(7-(pyridin-4-yl)-3H-imidazo[4,5-c]pyridin-2-yl)-1H-pyrazolo[4,3-b]pyridine] | 0% | 9.5% |
| > 10 µM | > 10 µM | Cn1cc(-c2ccc3[nH]nc(-c4nc5c(-c6cccs6)cncc5[nH]4)c3n2)cn1 [Compound 656, 5-(1-Methyl-1H-pyrazol-4-yl)-3-(7-(thiophen-2-yl)-3H-imidazo[4,5-c]pyridin-2-yl)-1H-pyrazolo[4,3-b]pyridine] | 14.8% | 3% |
| > 10 µM | > 10 µM | CN(C)CCOc1cncc(-c2ccc3[nH]nc(-c4nc5c(-c6cccs6)cncc5[nH]4)c3n2)c1 [Compound 663, N,N-Dimethyl-2-((5-(3-(7-(thiophen-2-yl)-3H-imidazo[4,5-c]pyridin-2-yl)-1H-pyrazolo[4,3-b]pyridin-5-yl)pyridin-3-yl)oxy)ethan-1-amine] | 43.8% | 46.7% |
| > 10 µM | > 10 µM | Cn1cc(-c2ccc3[nH]nc(-c4nc5c(-c6cc(F)cc(CNS(C)(=O)=O)c6)cncc5[nH]4)c3n2)cn1 [Compound 720, N-(3-Fluoro-5-(2-(5-(1-methyl-1H-pyrazol-4-yl)-1H-pyrazolo[4,3-b]pyridin-3-yl)-3H-imidazo[4,5-c]pyridin-7-yl)benzyl)methanesulfonamide] | 44.7% | 16.4% |
| > 10 µM | > 10 µM | CS(=O)(=O)NCc1cc(F)cc(-c2cncc3[nH]c(-c4n[nH]c5ccc(-c6cncc(NC(=O)CC7CCNCC7)c6)nc45)nc23)c1 [Compound 725, N-(5-(3-(7-(3-Fluoro-5-(methylsulfonamidomethyl)phenyl)-3H-imidazo[4,5-c]pyridin-2-yl)-1H-pyrazolo[4,3-b]pyridin-5-yl)pyridin-3-yl)-2-(piperidin-4-yl)acetamide] | 27.1% | 11.2% |

The remaining lines, values behind:

| SMILES | EC50 [1] | EC50 [2] | inhibition at 10 µM [1] | inhibition at 10 µM [2] |
| --- | --- | --- | --- | --- |
| CS(=O)(=O)NCc1cc(F)cc(-c2cncc3[nH]c(-c4n[nH]c5ccc(-c6cncc(NC(=O)c7ccccc7)c6)nc45)nc23)c1 [Compound 459, N-(5-(3-(7-(3-Fluoro-5-(methylsulfonamidomethyl)phenyl)-3H-imidazo[4,5-c]pyridin-2-yl)-1H-pyrazolo[4,3-b]pyridin-5-yl)pyridin-3-yl)benzamide] | > 10 µM | > 10 µM | 0% | 9.6% |
| CCCC(=O)Nc1cncc(-c2ccc3[nH]nc(-c4nc5c(-c6cc(F)cc(CNS(C)(=O)=O)c6)cncc5[nH]4)c3n2)c1 [Compound 465, N-(5-(3-(7-(3-Fluoro-5-(methylsulfonamidomethyl)phenyl)-3H-imidazo[4,5-c]pyridin-2-yl)-1H-pyrazolo[4,3-b]pyridin-5-yl)pyridin-3-yl)butyramide] | > 10 µM | > 10 µM | 28.6% | 28% |
| CS(=O)(=O)NCc1cc(F)cc(-c2cncc3[nH]c(-c4n[nH]c5ccc(-c6cncc(CNCc7ccccc7)c6)nc45)nc23)c1 [Compound 472, N-(3-(2-(5-(5-((Benzylamino)methyl)pyridin-3-yl)-1H-pyrazolo[4,3-b]pyridin-3-yl)-3H-imidazo[4,5-c]pyridin-7-yl)-5-fluorobenzyl)methanesulfonamide] | > 10 µM | > 10 µM | 39.3% | 20.1% |
| CS(=O)(=O)NCc1cc(F)cc(-c2cncc3[nH]c(-c4n[nH]c5ccc(-c6cncnc6)nc45)nc23)c1 [Compound 475, N-(3-Fluoro-5-(2-(5-(pyrimidin-5-yl)-1H-pyrazolo[4,3-b]pyridin-3-yl)-3H-imidazo[4,5-c]pyridin-7-yl)benzyl)methanesulfonamide] | > 10 µM | > 10 µM | 0% | 31.4% |
| Fc1cccc(-c2cncc3[nH]c(-c4n[nH]c5ccc(C6CCNCC6)nc45)nc23)c1 [Compound 477, 3-(7-(3-Fluorophenyl)-3H-imidazo[4,5-c]pyridin-2-yl)-5-(piperidin-4-yl)-1H-pyrazolo[4,3-b]pyridine] | > 10 µM | > 10 µM | 13% | 20% |
| Fc1cccc(-c2cncc3[nH]c(-c4n[nH]c5ccc(C6=CCNCC6)nc45)nc23)c1 [Compound 478, 3-(7-(3-Fluorophenyl)-3H-imidazo[4,5-c]pyridin-2-yl)-5-(1,2,3,6-tetrahydropyridin-4-yl)-1H-pyrazolo[4,3-b]pyridine] | > 10 µM | > 10 µM | 18.6% | 11% |
| Fc1cccc(-c2cncc3[nH]c(-c4n[nH]c5ccc(-c6cn[nH]c6)nc45)nc23)c1 [Compound 479, 3-(7-(3-Fluorophenyl)-3H-imidazo[4,5-c]pyridin-2-yl)-5-(1H-pyrazol-4-yl)-1H-pyrazolo[4,3-b]pyridine] | > 10 µM | > 10 µM | 15.7% | 9% |
| Cn1cc(-c2ccc3[nH]nc(-c4nc5c(-c6cccc(F)c6)cncc5[nH]4)c3n2)cn1 [Compound 480, 3-(7-(3-Fluorophenyl)-3H-imidazo[4,5-c]pyridin-2-yl)-5-(1-methyl-1H-pyrazol-4-yl)-1H-pyrazolo[4,3-b]pyridine] | > 10 µM | > 10 µM | 9.7% | 13% |
| Cc1ncc(-c2ccc3[nH]nc(-c4nc5c(-c6cccc(F)c6)cncc5[nH]4)c3n2)n1C [Compound 481, 5-(1,2-Dimethyl-1H-imidazol-5-yl)-3-(7-(3-fluorophenyl)-3H-imidazo[4,5-c]pyridin-2-yl)-1H-pyrazolo[4,3-b]pyridine] | > 10 µM | > 10 µM | 48.3% | 46% |
| NC1CN(c2cncc(-c3ccc4[nH]nc(-c5nc6c(-c7cccc(F)c7)cncc6[nH]5)c4n3)n2)C1 [Compound 482, 1-(6-(3-(7-(3-Fluorophenyl)-3H-imidazo[4,5-c]pyridin-2-yl)-1H-pyrazolo[4,3-b]pyridin-5-yl)pyrazin-2-yl)azetidin-3-amine] | > 10 µM | > 10 µM | 40.8% | 21% |
| Fc1cccc(-c2cncc3[nH]c(-c4n[nH]c5ccc(-c6cncc(OC7CCNCC7)c6)nc45)nc23)c1 [Compound 484, 3-(7-(3-Fluorophenyl)-3H-imidazo[4,5-c]pyridin-2-yl)-5-(5-(piperidin-4-yloxy)pyridin-3-yl)-1H-pyrazolo[4,3-b]pyridine] | > 10 µM | > 10 µM | 11.3% | 24% |
| Oc1cncc(-c2ccc3[nH]nc(-c4nc5c(-c6cccc(F)c6)cncc5[nH]4)c3n2)c1 [Compound 489, 5-(3-(7-(3-Fluorophenyl)-3H-imidazo[4,5-c]pyridin-2-yl)-1H-pyrazolo[4,3-b]pyridin-5-yl)pyridin-3-ol] | > 10 µM | > 10 µM | 43.3% | 27% |
| Cc1ccc(-c2cncc3[nH]c(-c4n[nH]c5ccc(C6=CCNCC6)nc45)nc23)s1 [Compound 686, 3-(7-(5-Methylthiophen-2-yl)-3H-imidazo[4,5-c]pyridin-2-yl)-5-(1,2,3,6-tetrahydropyridin-4-yl)-1H-pyrazolo[4,3-b]pyridine] | > 10 µM | > 10 µM | 23.8% | 52.6% |
